Experimental data from patent US7420100B2, “Methods and compositions relating to HDAC 4 and 5 regulation of cardiac gene expression” (Board of Regents, The University of Texas System, priority 1999, dated 2008).

Legend:
[1] = system: hypertrophic response to endothelin-1; details: in vitro; cited from earlier work
[2] = system: cultured cardiomyocytes; details: α-adrenergic stimulation and Ca2+ channel agonists; cited from earlier work
[3] = system: HDAC 5-green fluorescent protein (GFP) chimeric molecule; assay: subcellular distribution of HDAC 5-GFP in CaMKI-expressing cells exposed to leptomycinB; type: cell-based; details: CaMKI-expressing cells treated with leptomycinB
Excerpt: In principle, nuclear exclusion of HDAC 5 could result from inhibition of nuclear import or stimulation of nuclear export. To distinguish between these possibilities, the subcellular distribution of an HDAC 5-green fluorescent protein (GFP) chimeric molecule was monitored in cells exposed to leptomycinB, a fungal toxin that blocks nuclear export. In CaMK1 expressing cells, HDAC 5 is localized to the cytoplasm.

[4] = system: GAL4-MEF2C fusion protein; assay: activation of GAL4-MEF2C fusion protein in cardiomyocytes; type: cell-based, rat; details: stimulation of cardiomyocytes
Procedure: Preparation of primary rat cardiomyocytes. Cardiomyocyte cultures are prepared by dissociation of 1-day old neonatal rat hearts and were differentially plated to remove fibroblasts. To induce the hypertrophic response, AngII and PE are added to cardiomyocyte cultures at 10 nM and 10 μM, respectively, in serum-free M199 media. The culture media containing either agonist is changed every 12 hours for a period of 72 hours.
In light of the ability of MEF2 to respond to calcium-dependent signal transduction pathways in T cells, the inventors have investigated whether the same pathways also activate MEF2 in cardiomyocytes. […] When the C-terminus of MEF2C, which contains the transcription activation domains (TADs), but lacks the MADS and MEF2 domains required for DNA binding and dimerization, is fused to the DNA binding domain of the yeast transcription factor GAL4, the resulting GAL4-MEF2C fusion protein retains sensitivity to calcineurin and CaMKIV. This GAL4-MEF2C fusion protein is also activated by stimulation of cardiomyocytes with the hypertrophic agonist phenylephrine (PE).

[5] = system: BZLF1; details: cited from earlier work

## COc1ccc(S(=O)(=O)N(CCO)c2ccccc2CN(C)C/C=C/c2ccc(Cl)cc2)cc1 [KN-93]
[1]
  effect on hypertrophic response to endothelin-1: can block the hypertrophic response

## NCCCCCCNS(=O)(=O)c1cccc2c(Cl)cccc12 [W-7]
[2]
  effect on hypertrophy: prevents hypertrophy

## CCC(=C/[C@H](C)C/C=C/C(C)=C/[C@@H](C)C(=O)[C@@H](C)[C@H](O)[C@@H](C)C/C(C)=C/C(=O)O)/C=C/[C@@H]1OC(=O)C=C[C@@H]1C [leptomycinB]
[3]
  subcellular localization of HDAC 5: translocation of HDAC 5 from the cytoplasm to the nucleus
  time course of HDAC 5 translocation from cytoplasm to nucleus: 4 h

## CNC[C@H](O)c1cccc(O)c1 [phenylephrine]
[4]
  activation of GAL4-MEF2C fusion protein: activated

## cyclosporin A [CsA]
[5]
  effect on BZLF1 transcription: inhibited
